Reference: patent publication US7605272B2, “IGF-1R inhibitor” (Kyowa Hakko Kirin Co., Ltd., priority 2005, dated 2009)
Structures can show the parent of a compound that is named as a salt. Where two headings read alike, the source gives them in different places.

Assays:
NCI-H929 = experiment: Cytostatic activity on human multiple myeloma cell line NCI-H929 (WST-1); format: cell-based; conditions: for inhibition at 10 µM / inhibition at 1 µM: Homo sapiens, NCI-H929, 72 h; for inhibition at 10 µM: 10 μmol/L, read-out: cytostatic rate (%) H929 (10 μmol/L); for inhibition at 1 µM: read-out: cytostatic rate (%) H929 (1 μmol/L)
In short: (§1)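 Cells pre-cultured 24 h at 37 °C, 5% CO2, then exposed 72 h to compound at final 1 or 10 μmol/L (0.1% DMSO). WST-1 added for 2 h, absorbance at 450 nm (ref 690 nm). Cytostatic rate = 100 minus relative growth, with DMSO control as 100% and blank as 0%.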

KMS-11 = experiment: Cytostatic activity on human multiple myeloma cell line KMS-11 (WST-1); format: cell-based; conditions: for inhibition at 10 µM / inhibition at 1 µM: Homo sapiens, KMS-11, 72 h; for inhibition at 10 µM: 10 μmol/L, read-out: cytostatic rate (%) KMS-11 (10 μmol/L); for inhibition at 1 µM: read-out: cytostatic rate (%) KMS-11 (1 μmol/L)
In short: as §1

IGF-1R = target: T1, IGF-1R (Homo sapiens, UniProt P08069); experiment: IGF-1R inhibitory activity (kinase reaction, time-resolved fluoroimmunoassay); format: biochemical; conditions: test compound 10 μmol/L
T1 construct: purchased Upstate Co. 14-465
In short: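 Compounds were tested at a single 10 μmol/L concentration. Each was incubated with recombinant IGF-1R (200 μg/L), 10 mmol/L ATP, MgCl2/MnCl2 and Na3VO4 (pH 7.5) on immobilized poly(Glu-Tyr) peptide for 30 min at 24° C. Eu-anti-phosphotyrosine time-resolved fluorescence (340/615 nm) gave relative activity against no-compound and no-enzyme wells, reported as % inhibition.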

[1] = IGF-1R active recombinant enzyme
[2] = NCI-H929 cells, test compound 1 μmol/L, WST-1
[3] = KMS-11 cells, test compound 1 μmol/L, WST-1

T1 sequence (P08069 959-1367 limits assumed): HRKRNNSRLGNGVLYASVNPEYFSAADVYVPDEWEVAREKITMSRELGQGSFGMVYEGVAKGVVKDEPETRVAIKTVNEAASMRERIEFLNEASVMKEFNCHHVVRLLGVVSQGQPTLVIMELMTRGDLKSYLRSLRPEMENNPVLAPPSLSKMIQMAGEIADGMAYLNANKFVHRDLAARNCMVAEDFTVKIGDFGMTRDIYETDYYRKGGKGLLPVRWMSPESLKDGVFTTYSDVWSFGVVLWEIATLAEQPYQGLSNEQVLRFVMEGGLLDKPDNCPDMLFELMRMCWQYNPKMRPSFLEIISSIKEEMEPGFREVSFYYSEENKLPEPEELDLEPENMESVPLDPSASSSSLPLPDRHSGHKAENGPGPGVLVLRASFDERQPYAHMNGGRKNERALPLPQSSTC

Row | SMILES | inhibition at 10 µM (NCI-H929; 72 hours) [%] | inhibition at 10 µM (KMS-11; 72 hours) [%] | inhibition at 1 µM (NCI-H929; 1 μmol/L, 72 hours) [%] | inhibition at 1 µM (KMS-11; 1 μmol/L, 72 hours) [%] | inhibition at 10 µM (IGF-1R; [1]) [%] | other results
1 | CC(=O)N1CCN(C(=O)c2ccc(/C=C/c3n[nH]c4ccccc34)c(NC(=O)Cc3cccs3)c2)CC1 [Compound 89, (E)-N-{5-(4-acetylpiperazin-1-ylcarbonyl)-2-[2-(1H-indazol-3-yl)vinyl]phenyl}-2-(thiophen-2-yl)acetamide] | 114 | 138 | – | – | – | inhibition at 10 µM (IGF-1R): 98.4%
2 | CC(=O)N1CCC(NC(=O)c2ccc(/C=C/c3n[nH]c4ccccc34)c(NC(=O)c3sccc3C)c2)CC1 [Compound 303, (E)-N-{5-[N-(1-acetylpiperidin-4-yl)carbamoyl]-2-[2-(1H-indazol-3-yl)vinyl]phenyl}-3-methylthiophene-2-carboxamide] | – | – | 115 | 106 | 100 | –
3 | O=S(=O)(Nc1ccccc1/C=C/c1n[nH]c2ccccc12)c1cccs1 [Compound 60, (E)-N-{2-[2-(1H-indazol-3-yl)vinyl]phenyl}thiophene-2-sulfonamide] | 63.9 | 103 | – | – | 77.4 | –
4 | Nc1ccc(C(=O)Nc2ccccc2/C=C/c2n[nH]c3ccccc23)c(Cl)c1 [Compound 84, (E)-4-amino-2-chloro-N-{2-[2-(1H-indazol-3-yl)vinyl]phenyl}benzamide] | 113 | 107 | – | – | – | inhibition at 10 µM (IGF-1R): 100%
5 | Nc1cccc2c1C(=O)N(c1cc(CN3CCN(CCCO)CC3)ccc1/C=C/c1n[nH]c3ccccc13)C2=O [Compound 306, (E)-4-amino-2-{5-[4-(3-hydroxypropyl)piperazin-1-ylmethyl]-2-[2-(1H-indazol-3-yl)vinyl]phenyl}isoindole-1,3-dione] | – | – | – | – | 100 | inhibition at 1 µM (NCI-H929; [2]): 116%; inhibition at 1 µM (KMS-11; [3]): 112%
6 | Cc1ccsc1C(=O)Nc1cc(C(=O)N(C)C2CCN(C)CC2)ccc1/C=C/c1n[nH]c2ccccc12 [Compound 328, (E)-N-{2-[2-(1H-indazol-3-yl)vinyl]-5-[N-methyl-N-(1-methylpiperidin-4-yl)carbamoyl]phenyl}-3-methylthiophene-2-carboxamide] | – | – | – | – | 97.9 | inhibition at 1 µM (NCI-H929; [2]): 116%; inhibition at 1 µM (KMS-11; [3]): 105%
7 | O=C(Nc1ccccc1/C=C/c1n[nH]c2ccccc12)c1ccno1 [Compound 37, (E)-N-{2-[2-(1H-indazol-3-yl)vinyl]phenyl}isoxazole-5-carboxamide] | 112 | 112 | – | – | 99.1 | –
8 | O=C(Nc1ccccc1/C=C/c1n[nH]c2ccccc12)c1sccc1Cl [Compound 54, (E)-3-chloro-N-{2-[2-(1H-indazol-3-yl)vinyl]phenyl}thiophene-2-carboxamide] | 118 | 126 | – | – | 96.7 | –
9 | Cc1ccsc1C(=O)Nc1cc(CN2CCN(C=O)CC2)ccc1/C=C/c1n[nH]c2ccccc12 [Compound 270, (E)-N-{5-(4-formylpiperazin-1-ylmethyl)-2-[2-(1H-indazol-3-yl)vinyl]phenyl}-3-methylthiophene-2-carboxamide] | – | – | 121 | 129 | 100 | –
10 | CCN(CC)CCNC(=O)c1ccc(/C=C/c2n[nH]c3ccccc23)c(NC(=O)c2sccc2C)c1 [Compound 230, (E)-N-{5-(2-diethylaminoethylcarbamoyl)-2-[2-(1H-indazol-3-yl)vinyl]phenyl}-3-methylthiophene-2-carboxamide hydrochloride] | – | – | 124 | 93.8 | 98.9 | –
11 | CN(CCO)c1ccc(/C=C/c2n[nH]c3ccccc23)c(NC(=O)c2cccn2C)c1 [Compound 305, (E)-N-{5-[N-(2-hydroxyethyl)methylamino]-2-[2-(1H-indazol-3-yl)vinyl]phenyl}-1-methyl-1H-pyrrole-2-carboxamide] | – | – | – | – | 100 | inhibition at 1 µM (NCI-H929; [2]): 118%; inhibition at 1 µM (KMS-11; [3]): 110%
12 | Cn1ccnc1C(=O)Nc1ccccc1/C=C/c1n[nH]c2ccccc12 [Compound 352, (E)-N-{2-[2-(1H-indazol-3-yl)vinyl]phenyl}-1-methyl-1H-imidazole-2-carboxamide] | – | – | 108 | 84.8 | 103 | –
13 | COCCCN1CCN(Cc2ccc(/C=C/c3n[nH]c4ccccc34)c(N3Cc4c(N)cccc4C3=O)c2)CC1 [Compound 321, (E)-4-amino-2-{5-[4-(3-methoxypropyl)piperazin-1-ylmethyl]-2-[2-(1H-indazol-3-yl)vinyl]phenyl}-2,3-dihydroisoindole-1-one] | – | – | – | – | 101 | inhibition at 1 µM (NCI-H929; [2]): 122%; cytostatic rate (%) KMS-11 (1 μmol/L) (KMS-11; [3]): 102.3%
14 | CN[C@@H]1CN(CCCOc2ccc(/C=C/c3n[nH]c4ccccc34)c(NC(=O)c3sccc3C)c2OC)C[C@H]1OC (relative stereo) [Compound 348, (E)-N-(6-[2-(1H-indazol-3-yl)vinyl]-2-methoxy-3-{3-[(3R*,4R*)-3-methoxy-4-(methylamino)pyrrolidin-1-yl]propoxy}phenyl)-3-methylthiophene-2-carboxamide] | – | – | 116 | 117 | 109 | –
15 | COc1c(OC(=O)CC(=O)N2CC[C@@H](O)C2)ccc(/C=C/c2n[nH]c3ccccc23)c1NC(=O)c1sccc1C [Compound 343, (E)-N—(R)-{6-[2-(1H-indazol-3-yl)vinyl]-2-methoxy-3-[(3-hydroxypyrrolidine-1-ylcarbonyl)acetyloxy]phenyl}-3-methylthiophene-2-carboxamide] | – | – | – | – | – | cytostatic rate (%) H929 (1 μmol/L) (NCI-H929; [2]): 127.5%; cytostatic rate (%) KMS-11 (1 μmol/L) (KMS-11; [3]): 79%; inhibitory activity (%) at 10 μmol/L (IGF-1R; [1]): 98.4%
16 | COc1c(OCCN2CCCC2=O)ccc(/C=C/c2n[nH]c3ccccc23)c1NC(=O)c1sccc1C [Compound 337, (E)-N-{6-[2-(1H-indazol-3-yl)vinyl]-2-methoxy-3-[2-(2-oxopyrrolidin-1-yl)ethoxy]phenyl}-3-methylthiophene-2-carboxamide] | – | – | – | – | 97.4 | inhibition at 1 µM (NCI-H929; [2]): 120%; inhibition at 1 µM (KMS-11; [3]): 121%
17 | Nc1ccc(C(=O)Nc2ccccc2/C=C/c2n[nH]c3ccccc23)cc1 [Compound 70, (E)-4-amino-N-{2-[2-(1H-indazol-3-yl)vinyl]phenyl}benzamide] | 115 | 113 | – | – | 101 | –
18 | C(=C\c1n[nH]c2ccccc12)/c1ccccc1N1CCOCC1 [Compound 137, (E)-3-[2-{2-(morpholin-4-yl)phenyl]vinyl}-1H-indazole] | 114 | 51.2 | – | – | 94.3 | –
19 | O=C(Nc1ccccc1/C=C/c1n[nH]c2ccccc12)C1CCC1 [Compound 44, (E)-N-{2-[2-(1H-indazol-3-yl)vinyl]phenyl}cyclobutanecarboxamide] | 115 | 113 | – | – | 98 | –
20 | Cc1ccsc1C(=O)Nc1cc(CN2CCN(S(C)(=O)=O)CC2)ccc1/C=C/c1n[nH]c2ccccc12 [Compound 232, (E)-N-{2-[2-(1H-indazol-3-yl)vinyl]-5-(4-methanesulfonylpiperazin-1-ylmethyl)phenyl}-3-methylthiophene-2-carboxamide] | – | – | 124 | 116 | 101 | –
21 | OCCOc1ccccc1/C=C/c1n[nH]c2ccccc12 [Compound 134, (E)-2-{2-[2-(1H-indazol-3-yl)vinyl]phenoxy}ethanol] | 92.8 | 52.5 | – | – | 93.4 | –
22 | COc1c(OCCCN(C)CCO)ccc(/C=C/c2n[nH]c3ccccc23)c1NC(=O)c1sccc1C [Compound 347, (E)-N-{3-{3-[(2-hydroxyethyl)methylamino]propoxy}-6-[2-(1H-indazol-3-yl)vinyl]-2-methoxyphenyl}-3-methylthiophene-2-carboxamide] | – | – | 116 | 116 | 106 | –
23 | Cc1ccsc1C(=O)Nc1cc(CN2CCN(CCC#N)CC2)ccc1/C=C/c1n[nH]c2ccccc12 [Compound 268, (E)-N-{5-[4-(2-cyanoethyl)piperazin-1-ylmethyl]-2-[2-(1H-indazol-3-yl)vinyl]phenyl}-3-methylthiophene-2-carboxamide] | – | – | 118 | 129 | 101 | –
24 | O=C(Nc1ccccc1/C=C/c1n[nH]c2ccccc12)C1CC1 [Compound 33, (E)-N-{2-[2-(1H-indazol-3-yl)vinyl]phenyl}cyclopropanecarboxamide] | 108 | 115 | – | – | 92.4 | –
25 | Nc1cccc2c1CN(c1ccccc1/C=C/c1n[nH]c3ccccc13)C2=O [Compound 216, (E)-4-amino-2-{2-[2-(1H-indazol-3-yl)vinyl]phenyl}-2,3-dihydroisoindole-1-one] | 109 | 90.9 | – | – | 96.5 | –
